Assay results taken from patent US4873225A, “1-n-(4-amino-3-fluoro-2-hydroxybutyryl)-kanamycins” (Zaidan Hojin Biseibutsu Kagaku Kenkyu Kai, priority 1987, dated 1989).
In brackets after ≈: the same amount, converted by molar mass. Where two headings read alike, the source gives them in different places.

Legend:
Assay in all cases: MIC, standard serial dilution method
Assay type in all cases: cell-based
Bacillus subtilis PCI219 = settings: PCI219, pH 7, read-out: MIC
Protocol: (§1) Antibacterial activities of each of the abovementioned compounds of the general formula (I) according to this invention were determined by measuring their minimum growth inhibitory concentrations (MIC, mcg/ml) against various bacteria in accordance with a standard serial dilution method. The pH condition of the incubation medium where the MIC data were measured was set at pH 7, unless otherwise specifically indicated. For the sake of comparison, the antibacterial spectra of 1-N-{(S)-4-amino-2-hydroxybutyryl}kanamycin A (i.e., amikacin) and 1-N-{(S)-4-amino-2-hydroxybutyryl}-3,4-dideoxykanamycin B (i.e., habekacin) were also measured in the same manner.

[1] = system: Corynebacterium bovis 1810; settings: Corynebacterium bovis, 1810, pH 7; read-out: MIC
Protocol: as §1

Escherichia coli JR 225 = settings: JR225, pH 7
Protocol: as §1

[2] = system: Escherichia coli K-12 LA 290 R55; settings: K12LA290R55, pH 7
Protocol: as §1

[3] = system: Escherichia coli K-12 ML 1629; settings: K12ML1629, pH 7, read-out: MIC
Protocol: as §1

Escherichia coli K-12 = settings: K12, pH 7
Protocol: as §1

[4] = system: Klebsiella pneumoniae 22 #3038; settings: pH 7, read-out: MIC
Protocol: as §1

Mycobacterium 607 = settings: Mycobacterium, 607, pH 7; read-out: MIC
Protocol: as §1

Proteus rettgeri GN 311 = settings: Providencia rettgeri, GN311, pH 7; read-out: MIC
Protocol: as §1

Providencia sp. Pv 16 = settings: SP.PV16, pH 7, read-out: MIC
Protocol: as §1

[5] = system: Pseudomonas aeruginosa A3; settings: A3, pH 7, read-out: MIC
Protocol: as §1

[6] = system: Pseudomonas aeruginosa GN 315; settings: GN315, pH 7
Protocol: as §1

Serratia marcescens = settings: pH 7, read-out: MIC
Protocol: as §1

[7] = system: Staphylococcus aureus 209P; settings: pH 7, read-out: MIC
Protocol: as §1

[8] = system: Staphylococcus aureus Ap01; settings: AP01, pH 7, read-out: MIC
Protocol: as §1

Escherichia coli K-12 R5 = settings: K12R5, pH 7
Protocol: as §1
Infectious diseases by Escherichia coli K-12 R5 tend to increase in recent days. The compounds of this invention are therefore important for the therapeutic treatment of bacterial infections.

[9] = system: Escherichia coli JR66/W677; settings: Escherichia coli, read-out: MIC
Protocol: as §1
(§2) (a) The antibacterial activities of the compounds of this invention are not decreased practically even under pH conditions of pH […] as compared to their antibacterial activities under neutral conditions of pH 7.

[10] = system: Pseudomonas aeruginosa TI 13; settings: Pseudomonas aeruginosa, read-out: MIC
Protocol: as §1, §2

SMILES	MIC (Bacillus subtilis PCI219)	MIC [1]	MIC (Escherichia coli JR 225)	MIC [2]	MIC [3]	MIC (Escherichia coli K-12)	MIC [4]	MIC (Mycobacterium 607)	MIC (Proteus rettgeri GN 311)	MIC (Providencia sp. Pv 16)	MIC [5]	MIC [6]	MIC (Serratia marcescens)	MIC [7]	MIC [8]	MIC (Escherichia coli K-12 R5)	MIC ([9]; JR66/W677, pH 7)	MIC ([9]; JR66/W677, measured at pH 6)	MIC ([10]; TI13, pH 7)	MIC ([10]; TI13, measured at pH 6)
NC[C@@H](F)[C@H](O)C(=O)N[C@@H]1C[C@H](N)[C@@H](O[C@H]2O[C@H](CN)[C@@H](O)[C@H](O)[C@H]2O)[C@H](F)[C@H]1O[C@H]1O[C@H](CO)[C@@H](O)[C@H](N)[C@H]1O [Invention Compound No. 4, 1-N-{(2R,3R)-4-Amino-3-fluoro-2-hydroxybutyryl}-5-deoxy-5-fluorokanamycin A]	3.12 µg/mL (≈ 5.15 µM)	0.39 µg/mL (≈ 0.644 µM)	0.39 µg/mL (≈ 0.644 µM)	0.78 µg/mL (≈ 1.29 µM)	0.39 µg/mL (≈ 0.644 µM)	0.78 µg/mL (≈ 1.29 µM)	3.12 µg/mL (≈ 5.15 µM)	3.12 µg/mL (≈ 5.15 µM)	1.56 µg/mL (≈ 2.58 µM)	1.56 µg/mL (≈ 2.58 µM)	1.56 µg/mL (≈ 2.58 µM)	25 µg/mL (≈ 41.3 µM)	6.25 µg/mL (≈ 10.3 µM)	1.56 µg/mL (≈ 2.58 µM)	6.25 µg/mL (≈ 10.3 µM)	6.25 µg/mL (≈ 10.3 µM)	1.56 µg/mL (≈ 2.58 µM)	3.12 µg/mL (≈ 5.15 µM)	3.12 µg/mL (≈ 5.15 µM)	3.12 µg/mL (≈ 5.15 µM)
NC[C@@H](F)[C@H](O)C(=O)N[C@@H]1C[C@H](N)[C@@H](O[C@H]2O[C@H](CN)[C@@H](O)[C@H](O)[C@H]2N)[C@H](O)[C@H]1O[C@H]1O[C@H](CO)[C@@H](O)[C@H](N)[C@H]1O [Invention Compound No. 5, 1-N-{(2R,3R)-4-Amino-3-fluoro-2-hydroxybutyryl}-kanamycin B]	1.56 µg/mL (≈ 2.59 µM)	0.39 µg/mL (≈ 0.647 µM)	0.39 µg/mL (≈ 0.647 µM)	0.78 µg/mL (≈ 1.29 µM)	0.78 µg/mL (≈ 1.29 µM)	0.2 µg/mL (≈ 0.332 µM)	3.12 µg/mL (≈ 5.18 µM)	12.5 µg/mL (≈ 20.7 µM)	0.39 µg/mL (≈ 0.647 µM)	1.56 µg/mL (≈ 2.59 µM)	0.78 µg/mL (≈ 1.29 µM)	6.25 µg/mL (≈ 10.4 µM)	6.25 µg/mL (≈ 10.4 µM)	0.78 µg/mL (≈ 1.29 µM)	6.25 µg/mL (≈ 10.4 µM)	3.12 µg/mL (≈ 5.18 µM)	0.78 µg/mL (≈ 1.29 µM)	3.12 µg/mL (≈ 5.18 µM)	1.56 µg/mL (≈ 2.59 µM)	3.12 µg/mL (≈ 5.18 µM)
NC[C@@H](F)[C@H](O)C(=O)N[C@@H]1C[C@H](N)[C@@H](O[C@H]2O[C@H](CN)[C@@H](O)C[C@H]2N)[C@H](O)[C@H]1O[C@H]1O[C@H](CO)[C@@H](O)[C@H](N)[C@H]1O [Invention Compound No. 6, 1-N-{(2R,3R)-4-Amino-3-fluoro-2-hydroxybutyryl}-3'-deoxykanamycin B]	0.2 µg/mL (≈ 0.341 µM)	0.39 µg/mL (≈ 0.665 µM)	< 0.2 µg/mL	0.39 µg/mL (≈ 0.665 µM)	0.78 µg/mL (≈ 1.33 µM)	< 0.2 µg/mL	1.56 µg/mL (≈ 2.66 µM)	0.78 µg/mL (≈ 1.33 µM)	0.39 µg/mL (≈ 0.665 µM)	0.78 µg/mL (≈ 1.33 µM)	< 0.2 µg/mL	3.12 µg/mL (≈ 5.32 µM)	3.12 µg/mL (≈ 5.32 µM)	0.39 µg/mL (≈ 0.665 µM)	0.78 µg/mL (≈ 1.33 µM)	3.12 µg/mL (≈ 5.32 µM)	0.39 µg/mL (≈ 0.665 µM)	1.56 µg/mL (≈ 2.66 µM)	0.78 µg/mL (≈ 1.33 µM)	3.12 µg/mL (≈ 5.32 µM)
NC[C@@H]1CC[C@@H](N)[C@@H](O[C@H]2[C@H](O)[C@@H](O[C@H]3O[C@H](CO)[C@@H](O)[C@H](N)[C@H]3O)[C@H](NC(=O)[C@@H](O)[C@H](F)CN)C[C@@H]2N)O1 [Invention Compound No. 7, 1-N-{(2R,3R)-4-Amino-3-fluoro-2-hydroxybutyryl}-3',4'-dideoxykanamycin B]	< 0.2 µg/mL	< 0.2 µg/mL	0.78 µg/mL (≈ 1.37 µM)	0.39 µg/mL (≈ 0.683 µM)	0.78 µg/mL (≈ 1.37 µM)	< 0.2 µg/mL	0.78 µg/mL (≈ 1.37 µM)	0.78 µg/mL (≈ 1.37 µM)	< 0.2 µg/mL	0.78 µg/mL (≈ 1.37 µM)	0.39 µg/mL (≈ 0.683 µM)	3.12 µg/mL (≈ 5.47 µM)	3.12 µg/mL (≈ 5.47 µM)	< 0.2 µg/mL	0.78 µg/mL (≈ 1.37 µM)	3.12 µg/mL (≈ 5.47 µM)	0.78 µg/mL (≈ 1.37 µM)	1.56 µg/mL (≈ 2.73 µM)	0.78 µg/mL (≈ 1.37 µM)	1.56 µg/mL (≈ 2.73 µM)
